The assay addresses Envelope glycoprotein gp160 (Human immunodeficiency virus 1, UniProt Q6QLK5). Description: cell-free HIV fusion peptide-binding blockers – biochemical, uHTS, fluorescence dequenching, […] (AID 1986).

Active and inactive are the calls of the source. Rule as the data show it: actives have a measured IC50 and inactives only a lower limit.

Chain of Envelope glycoprotein gp160 (Q6QLK5 whole entry, the tested form may be a part): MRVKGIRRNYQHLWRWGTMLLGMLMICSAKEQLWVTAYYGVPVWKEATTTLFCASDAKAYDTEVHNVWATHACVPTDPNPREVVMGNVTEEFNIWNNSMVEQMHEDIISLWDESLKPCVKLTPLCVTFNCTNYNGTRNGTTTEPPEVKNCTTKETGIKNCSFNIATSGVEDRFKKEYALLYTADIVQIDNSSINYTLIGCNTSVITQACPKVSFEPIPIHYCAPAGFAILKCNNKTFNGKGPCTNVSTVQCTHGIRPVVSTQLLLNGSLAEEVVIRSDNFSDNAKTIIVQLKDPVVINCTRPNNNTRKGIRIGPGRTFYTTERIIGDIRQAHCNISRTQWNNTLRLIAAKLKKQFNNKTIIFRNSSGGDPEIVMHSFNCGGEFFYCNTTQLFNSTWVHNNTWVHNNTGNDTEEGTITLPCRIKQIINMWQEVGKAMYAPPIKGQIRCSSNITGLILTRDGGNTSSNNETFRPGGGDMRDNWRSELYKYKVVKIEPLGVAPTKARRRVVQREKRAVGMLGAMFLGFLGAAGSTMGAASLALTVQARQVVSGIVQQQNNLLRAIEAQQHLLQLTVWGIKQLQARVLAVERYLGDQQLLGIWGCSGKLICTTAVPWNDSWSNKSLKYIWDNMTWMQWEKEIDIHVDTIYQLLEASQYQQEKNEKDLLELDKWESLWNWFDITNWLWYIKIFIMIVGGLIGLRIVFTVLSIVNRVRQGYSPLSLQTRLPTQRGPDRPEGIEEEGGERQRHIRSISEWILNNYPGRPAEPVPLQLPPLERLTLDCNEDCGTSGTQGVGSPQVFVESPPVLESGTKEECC

In general, IC50 refers to the concentration needed to halve the response being measured. As for `O=C(N/N=C/c1cc(Cl)cc([N+](=O)[O-])c1O)c1ccccc1NS(=O)(=O)c1cccs1`, the IC50 is 13.6 µM (active).
For the compound `COc1cc(OC)c2c(O)c3c(c(-c4c5c(c(O)c6c(OC)cc(OC)cc46)CO[C@@H](C)[C@H]5O)c2c1)[C@H](O)[C@H](C)OC3`, the IC50 is 10.1 µM (active).

(Values after ChEMBL document CHEMBL1201862, “PubChem BioAssay data set” (2004).)
